Experimental data from ChEMBL document CHEMBL3994655, “Methylsulfonyl benzothiazoles (MSBT) derivatives: Search for new potential antimicrobial and anticancer agents” (2017).
In brackets after ≈: the same amount, converted by molar mass.

Columns and labels:
Candida albicans [1] = experiment: Antifungal activity against Candida albicans A01 assessed as zone of inhibition at 1 mg/ml by agar well diffusion method; format: functional; details: read-out: DIZ
Candida albicans [2] = experiment: Antifungal activity against Candida albicans A01 after 24 to 48 hrs by macro-broth dilution method; format: functional
HeLa [3] = experiment: Cytotoxicity against human HeLa cells assessed as cell growth at 10^-6 M after 48 hrs by SRB assay relative to control; format: functional; details: read-out: Activity
Pichia kudriavzevii [4] = experiment: Antifungal activity against Candida krusei G03 after 24 to 48 hrs by macro-broth dilution method; format: functional
HeLa [5] = experiment: Cytotoxicity against human HeLa cells assessed as cell growth at 10^-4 M after 48 hrs by SRB assay relative to control; format: functional; details: read-out: Activity
HeLa [6] = experiment: Cytotoxicity against human HeLa cells assessed as reduction in cell viability after 48 hrs by SRB assay; format: functional, cell-based
Staphylococcus aureus [7] = experiment: Antibacterial activity against Staphylococcus aureus 209P assessed as zone of inhibition at 5 mg/ml by agar well diffusion method; format: functional; details: read-out: DIZ
Escherichia coli [8] = experiment: Antibacterial activity against Escherichia coli ATCC 35421 assessed as zone of inhibition at 5 mg/ml by agar well diffusion method; format: functional; details: read-out: DIZ
HeLa [9] = experiment: Growth inhibition of human HeLa cells after 48 hrs by SRB assay; format: functional
Nakaseomyces glabratus [10] = experiment: Antifungal activity against Candida glabrata H05 after 24 to 48 hrs by macro-broth dilution method; format: functional
Candida albicans [11] = experiment: Antifungal activity against Candida albicans ATCC 10231 after 24 to 48 hrs by macro-broth dilution method; format: functional
Escherichia coli [12] = experiment: Antibacterial activity against Escherichia coli ATCC 35421 assessed as zone of inhibition at 1 mg/ml by agar well diffusion method; format: functional; details: read-out: DIZ
HeLa [13] = experiment: Cytotoxicity against human HeLa cells assessed as cell growth at 10^-7 M after 48 hrs by SRB assay relative to control; format: functional; details: read-out: Activity
Candida albicans [14] = experiment: Antifungal activity against Candida albicans A01 assessed as zone of inhibition at 5 mg/ml by agar well diffusion method; format: functional; details: read-out: DIZ
Nakaseomyces glabratus [15] = experiment: Antifungal activity against Candida glabrata H04 after 24 to 48 hrs by macro-broth dilution method; format: functional
Pichia kudriavzevii [16] = experiment: Antifungal activity against Candida krusei G06 after 24 to 48 hrs by macro-broth dilution method; format: functional
HeLa [17] = experiment: Cytotoxicity against human HeLa cells assessed as cell growth at 10^-5 M after 48 hrs by SRB assay relative to control; format: functional; details: read-out: Activity
Staphylococcus aureus [18] = experiment: Antibacterial activity against Staphylococcus aureus 209P assessed as zone of inhibition at 1 mg/ml by agar well diffusion method; format: functional; details: read-out: DIZ
Escherichia coli [19] = experiment: Antibacterial activity against Escherichia coli ATCC 20732 after 24 to 48 hrs by macro-broth dilution method; format: functional
[20] = test system: Staphylococcus epidermidis; experiment: Antibacterial activity against Staphylococcus epidermidis 209E after 24 to 48 hrs by macro-broth dilution method; format: functional
Staphylococcus aureus [21] = experiment: Antibacterial activity against methicillin-resistant Staphylococcus aureus ATCC 33591 after 24 to 48 hrs by macro-broth dilution method; format: functional
Escherichia coli [22] = experiment: Antibacterial activity against Escherichia coli ATCC 35421 after 24 to 48 hrs by macro-broth dilution method; format: functional
Staphylococcus aureus [23] = experiment: Antibacterial activity against Staphylococcus aureus 209P after 24 to 48 hrs by macro-broth dilution method; format: functional
Pseudomonas aeruginosa = experiment: Antibacterial activity against Pseudomonas aeruginosa M5 after 24 to 48 hrs by macro-broth dilution method; format: functional
Staphylococcus aureus [24] = experiment: Antibacterial activity against methicillin-resistant Staphylococcus aureus 3710 after 24 to 48 hrs by macro-broth dilution method; format: functional

Row | Compound | zone of inhibition at 1000 µg/mL (Candida albicans [1]) | MIC (Candida albicans [2]) | growth at 1 µM (HeLa [3]) | MIC (Pichia kudriavzevii [4]) | growth at 100 µM (HeLa [5]) | Activity (HeLa [6]) | zone of inhibition at 5000 µg/mL (Staphylococcus aureus [7]) | zone of inhibition at 5000 µg/mL (Escherichia coli [8]) | GI50 (HeLa [9]) | LC50 (HeLa [9]) | TGI (HeLa [9]) | growth inhibition (GI) (HeLa [9]) | MIC (Nakaseomyces glabratus [10]) | MIC (Candida albicans [11]) | zone of inhibition at 1000 µg/mL (Escherichia coli [12]) | growth at 0.1 µM (HeLa [13]) | zone of inhibition at 5000 µg/mL (Candida albicans [14]) | MIC (Nakaseomyces glabratus [15]) | growth at 10 µM (HeLa [17]) | zone of inhibition at 1000 µg/mL (Staphylococcus aureus [18]) | other results
1 | CCOc1ccc2sc(S(C)(=O)=O)nc2c1N | ≤ 7 mm | 8 µg/mL (≈ 29.4 µM) | 93% | 10 µg/mL (≈ 36.7 µM) | -31.9% | Dose-dependent effect | ≤ 7 mm | ≤ 7 mm | 34 µM | > 100 µM | 74.3 µM | Dose-dependent effect | 10 µg/mL (≈ 36.7 µM) | 4 µg/mL (≈ 14.7 µM) | ≤ 7 mm | 99.5% | 19 mm | 10 µg/mL (≈ 36.7 µM) | 65.6% | 17 mm | MIC (Pichia kudriavzevii [16]): 10 µg/mL (≈ 36.7 µM)
2 | CS(=O)(=O)c1nc2cc(OCc3ccc(Cl)cc3)ccc2s1 | 9 mm | 20 µg/mL (≈ 56.5 µM) | 89.9% | 20 µg/mL (≈ 56.5 µM) | -50.5% | Dose-dependent effect | 22 mm | 10 mm | 33 µM | > 100 µM | 73.3 µM | Dose-dependent effect | 50 µg/mL (≈ 141 µM) | 20 µg/mL (≈ 56.5 µM) | 9 mm | 100% | 16 mm | 50 µg/mL (≈ 141 µM) | 60.8% | 13 mm | MIC (Escherichia coli [19]): 20 µg/mL (≈ 56.5 µM); MIC [20]: 100 µg/mL (≈ 283 µM); MIC (Staphylococcus aureus [21]): 100 µg/mL (≈ 283 µM); MIC (Escherichia coli [22]): 20 µg/mL (≈ 56.5 µM); MIC (Staphylococcus aureus [23]): 100 µg/mL (≈ 283 µM); MIC (Pichia kudriavzevii [16]): 20 µg/mL (≈ 56.5 µM); MIC (Pseudomonas aeruginosa): 50 µg/mL (≈ 141 µM); MIC (Staphylococcus aureus [24]): 100 µg/mL (≈ 283 µM)
3 | CCOc1ccc2sc(S(C)(=O)=O)nc2c1S(=O)(=O)NC(C)(C)C | ≤ 7 mm | – | 42.1% | – | -76.3% | Dose-dependent effect | 13 mm | 10 mm | 0.6 µM | 76.6 µM | 38.6 µM | Dose-dependent effect | – | – | 9 mm | 97.9% | ≤ 7 mm | – | -6.7% | ≤ 7 mm | MIC (Escherichia coli [19]): 20 µg/mL (≈ 51 µM); MIC [20]: 10 µg/mL (≈ 25.5 µM); MIC (Staphylococcus aureus [21]): 10 µg/mL (≈ 25.5 µM); MIC (Escherichia coli [22]): 20 µg/mL (≈ 51 µM); MIC (Staphylococcus aureus [23]): 8 µg/mL (≈ 20.4 µM); MIC (Pseudomonas aeruginosa): 50 µg/mL (≈ 127 µM); MIC (Staphylococcus aureus [24]): 10 µg/mL (≈ 25.5 µM)
4 | CCOc1ccc2sc(S(C)(=O)=O)nc2c1S(=O)(=O)NC(CC)CC | ≤ 7 mm | – | 89.4% | – | -65.8% | Dose-dependent effect | 21 mm | 10 mm | 19.5 µM | 87.4 µM | 53.5 µM | Dose-dependent effect | – | – | 9 mm | 91.8% | ≤ 7 mm | – | 35.6% | 13 mm | MIC (Escherichia coli [19]): 50 µg/mL (≈ 123 µM); MIC [20]: 50 µg/mL (≈ 123 µM); MIC (Staphylococcus aureus [21]): 100 µg/mL (≈ 246 µM); MIC (Escherichia coli [22]): 50 µg/mL (≈ 123 µM); MIC (Staphylococcus aureus [23]): 50 µg/mL (≈ 123 µM); MIC (Pseudomonas aeruginosa): 100 µg/mL (≈ 246 µM); MIC (Staphylococcus aureus [24]): 100 µg/mL (≈ 246 µM)
5 | OC(Cn1cncn1)(Cn1cncn1)c1ccc(F)cc1F [FLUCONAZOLE] | – | 4 µg/mL (≈ 13.1 µM) | – | 2 µg/mL (≈ 6.53 µM) | – | – | – | – | – | – | – | – | 2 µg/mL (≈ 6.53 µM) | 4 µg/mL (≈ 13.1 µM) | – | – | – | 2 µg/mL (≈ 6.53 µM) | – | – | MIC (Pichia kudriavzevii [16]): 2 µg/mL (≈ 6.53 µM)
